Data reported in patent US5424456A, “N-arylalkylderivatives of 2-aminomethyl-2,3-dihydro-1,4-benzodioxine and the process of preparation thereof” (Vyzkumny Ustav Pro Farmacii A Biochemii s.p., priority 1991, dated 1995).

How the values were obtained:
blood pressure [1] = assay: Hypotensive activity, conscious monkeys; format: in vivo, Macaca mulatta
Protocol: c) The blood pressure of conscious monkeys (Macaca mulatta) was measured non-invasively on the arm. The average decrease in systolic (SBP) and diastolic (DBP) blood pressure after intravenous and oral administration was expressed in per cents of the starting blood pressure.

calcium channel = molecular target: T1, calcium channel (Rattus norvegicus, UniProt P22002); assay: Calcium channel blocking activity, K+ depolarization-induced contraction of helically cut rat aortic strip; conditions: Krebs-Henselheit solution, 37° C., cumulative doses, read-out: IC50 (50% decrease of contraction of the aortic strip)
T1 construct: helically cut rat aortic strip; from tissue; host or cells: rat aorta (helically cut strip)
Protocol: The calcium channel blocking activity of the compounds was tested using a helically cut rat aortic strip in Krebs-Henselheit solution at 37° C., bubbled with a mixture of 95% O2 and 5% CO2. The isometrically registered contractions were induced by K^(+). depolarization. The test compounds were applied in a cumulative doses and the vasodilating activity thereof was expressed in calculated concentration of the test compound, causing 50% decrease of contraction of the aortic strip (IC50).

blood pressure [2] = assay: Hypotensive activity, pentobarbital anaesthesized dogs; format: in vivo, dog
Source text: b) The blood pressure of pentobarbital anaesthesized dogs was registered invasively in arteria femoralis. The average decrease in systolic (SBP) arid diastolic (DBP) blood pressure expressed in per cents of the starting blood pressure level after intravenous and oral administration is shown in Tables 5 and 6.

[3] = i.v., 0.45 mg/kg, value 1 of 5 (heads 5/30/60/180 min; probably 1 min)
[4] = i.v., 0.45 mg/kg, value 2 of 5 (heads 5/30/60/180 min; probably 5 min)
[5] = i.v., 0.45 mg/kg, value 3 of 5 (heads 5/30/60/180 min; probably 30 min)
[6] = i.v., 0.45 mg/kg, value 4 of 5 (heads 5/30/60/180 min; probably 60 min)
[7] = i.v., 0.45 mg/kg, value 5 of 5 (heads 5/30/60/180 min; probably 180 min)
[8] = i.v., 4.5 mg/kg, value 1 of 5 (heads 5/30/60/180 min; probably 1 min)
[9] = i.v., 4.5 mg/kg, value 2 of 5 (heads 5/30/60/180 min; probably 5 min)
[10] = i.v., 4.5 mg/kg, value 3 of 5 (heads 5/30/60/180 min; probably 30 min)
[11] = i.v., 4.5 mg/kg, value 4 of 5 (heads 5/30/60/180 min; probably 60 min)
[12] = i.v., 4.5 mg/kg, value 5 of 5 (heads 5/30/60/180 min; probably 180 min)

T1 sequence (P22002 whole entry): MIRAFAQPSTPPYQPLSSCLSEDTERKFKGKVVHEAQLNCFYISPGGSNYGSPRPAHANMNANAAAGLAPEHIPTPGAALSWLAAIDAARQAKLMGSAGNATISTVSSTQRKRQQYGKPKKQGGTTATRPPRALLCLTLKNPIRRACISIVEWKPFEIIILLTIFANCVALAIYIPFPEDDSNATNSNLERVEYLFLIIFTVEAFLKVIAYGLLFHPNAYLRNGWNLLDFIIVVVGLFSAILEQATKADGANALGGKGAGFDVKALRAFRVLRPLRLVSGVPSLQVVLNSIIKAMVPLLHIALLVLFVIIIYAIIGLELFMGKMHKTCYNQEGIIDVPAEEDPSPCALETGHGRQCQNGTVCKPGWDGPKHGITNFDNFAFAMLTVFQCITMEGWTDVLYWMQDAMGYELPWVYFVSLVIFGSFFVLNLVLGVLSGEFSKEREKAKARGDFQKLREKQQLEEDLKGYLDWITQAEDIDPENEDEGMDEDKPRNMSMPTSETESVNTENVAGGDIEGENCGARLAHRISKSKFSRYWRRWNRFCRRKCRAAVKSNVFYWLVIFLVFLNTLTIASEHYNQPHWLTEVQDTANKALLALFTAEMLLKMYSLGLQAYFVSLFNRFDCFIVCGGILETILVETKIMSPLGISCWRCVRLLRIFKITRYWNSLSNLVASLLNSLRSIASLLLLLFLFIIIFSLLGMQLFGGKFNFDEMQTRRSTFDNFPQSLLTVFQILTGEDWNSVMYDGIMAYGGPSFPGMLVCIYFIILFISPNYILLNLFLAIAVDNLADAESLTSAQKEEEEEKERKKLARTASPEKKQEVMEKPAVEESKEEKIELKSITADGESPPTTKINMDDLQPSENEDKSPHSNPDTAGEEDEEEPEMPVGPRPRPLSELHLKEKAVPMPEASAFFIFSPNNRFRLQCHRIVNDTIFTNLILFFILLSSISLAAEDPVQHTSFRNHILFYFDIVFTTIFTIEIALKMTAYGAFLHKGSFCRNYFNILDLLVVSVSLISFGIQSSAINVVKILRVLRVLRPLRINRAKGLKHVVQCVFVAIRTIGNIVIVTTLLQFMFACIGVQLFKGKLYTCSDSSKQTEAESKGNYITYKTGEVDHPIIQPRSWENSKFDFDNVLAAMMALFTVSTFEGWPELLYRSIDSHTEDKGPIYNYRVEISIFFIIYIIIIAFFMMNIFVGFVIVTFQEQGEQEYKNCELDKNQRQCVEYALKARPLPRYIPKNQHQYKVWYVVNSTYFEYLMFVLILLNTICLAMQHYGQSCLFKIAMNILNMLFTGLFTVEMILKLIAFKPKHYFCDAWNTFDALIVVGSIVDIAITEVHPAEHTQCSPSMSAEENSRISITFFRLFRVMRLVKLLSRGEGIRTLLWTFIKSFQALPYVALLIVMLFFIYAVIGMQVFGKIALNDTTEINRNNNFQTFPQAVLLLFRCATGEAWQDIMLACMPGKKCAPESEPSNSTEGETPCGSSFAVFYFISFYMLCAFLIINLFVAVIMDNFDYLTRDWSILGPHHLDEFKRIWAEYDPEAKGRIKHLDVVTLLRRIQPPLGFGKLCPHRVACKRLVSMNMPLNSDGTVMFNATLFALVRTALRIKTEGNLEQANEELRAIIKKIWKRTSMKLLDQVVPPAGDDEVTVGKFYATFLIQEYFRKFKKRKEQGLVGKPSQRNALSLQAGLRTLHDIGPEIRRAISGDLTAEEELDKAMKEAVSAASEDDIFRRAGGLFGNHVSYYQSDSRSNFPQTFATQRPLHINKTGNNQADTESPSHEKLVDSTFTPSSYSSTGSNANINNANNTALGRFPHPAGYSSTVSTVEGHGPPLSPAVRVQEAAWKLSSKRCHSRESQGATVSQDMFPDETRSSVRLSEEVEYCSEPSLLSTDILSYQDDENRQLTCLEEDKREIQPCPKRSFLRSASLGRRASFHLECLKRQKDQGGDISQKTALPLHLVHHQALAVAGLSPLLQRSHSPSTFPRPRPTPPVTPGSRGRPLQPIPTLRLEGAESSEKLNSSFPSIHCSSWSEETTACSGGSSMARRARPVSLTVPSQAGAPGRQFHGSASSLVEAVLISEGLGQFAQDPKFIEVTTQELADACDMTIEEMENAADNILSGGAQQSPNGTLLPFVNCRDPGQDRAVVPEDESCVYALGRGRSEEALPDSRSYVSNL
T1 sequence (P54290 25-1091 partner): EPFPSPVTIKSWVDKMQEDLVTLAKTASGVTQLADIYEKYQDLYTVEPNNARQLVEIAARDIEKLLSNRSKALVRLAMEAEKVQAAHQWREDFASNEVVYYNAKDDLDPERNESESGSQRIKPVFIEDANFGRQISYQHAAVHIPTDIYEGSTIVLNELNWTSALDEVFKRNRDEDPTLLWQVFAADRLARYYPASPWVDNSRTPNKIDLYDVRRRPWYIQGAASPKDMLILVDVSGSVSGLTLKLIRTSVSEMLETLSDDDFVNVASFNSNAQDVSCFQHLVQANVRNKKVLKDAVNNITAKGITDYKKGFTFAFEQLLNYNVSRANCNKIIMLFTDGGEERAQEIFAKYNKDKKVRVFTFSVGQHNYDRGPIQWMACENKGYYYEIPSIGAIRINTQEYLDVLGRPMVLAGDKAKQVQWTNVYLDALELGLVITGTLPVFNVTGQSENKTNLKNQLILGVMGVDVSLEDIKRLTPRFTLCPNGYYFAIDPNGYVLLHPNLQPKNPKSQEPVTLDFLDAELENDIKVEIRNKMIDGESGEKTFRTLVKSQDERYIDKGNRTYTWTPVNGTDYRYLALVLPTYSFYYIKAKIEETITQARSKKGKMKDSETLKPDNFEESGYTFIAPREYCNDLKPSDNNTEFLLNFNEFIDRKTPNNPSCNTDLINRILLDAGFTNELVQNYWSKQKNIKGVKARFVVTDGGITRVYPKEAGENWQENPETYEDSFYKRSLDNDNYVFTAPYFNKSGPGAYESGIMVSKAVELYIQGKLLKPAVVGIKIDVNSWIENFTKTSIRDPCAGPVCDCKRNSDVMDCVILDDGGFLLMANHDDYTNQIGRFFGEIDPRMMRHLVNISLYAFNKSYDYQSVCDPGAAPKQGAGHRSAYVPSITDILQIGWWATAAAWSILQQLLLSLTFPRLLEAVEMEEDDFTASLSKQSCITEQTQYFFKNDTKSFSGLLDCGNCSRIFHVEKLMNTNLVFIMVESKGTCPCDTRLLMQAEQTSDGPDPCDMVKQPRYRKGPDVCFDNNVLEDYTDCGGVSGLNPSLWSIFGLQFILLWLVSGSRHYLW

IC50 (calcium channel): 16 µM
Compound: Cc1ccccc1C(C#N)(CCCNCC1COc2ccccc2O1)C(C)C (racemic) [VUFB 17959, 5-(2,3-dihydro-1,4-benzodioxin-2-ylmethylamino)-2-isopropyl-2-(2-methylphenyl) valeronitrile]
decrease in systolic blood pressure (SBP) (blood pressure [1]; i.v., 0.25 mg/kg, 180 min): -5 per cents
decrease in diastolic blood pressure (DBP) (blood pressure [1]; i.v., 1.0 mg/kg, 1 min): -34 per cents
decrease in systolic blood pressure (SBP) (blood pressure [1]; i.v., 1.0 mg/kg, 1 min): -28 per cents
decrease in diastolic blood pressure (DBP) (blood pressure [1]; i.v., 1.0 mg/kg, 5 min): -38 per cents
decrease in systolic blood pressure (SBP) (blood pressure [1]; i.v., 1.0 mg/kg, 5 min): -31 per cents
decrease in diastolic blood pressure (DBP) (blood pressure [1]; i.v., 1.0 mg/kg, 30 min): -42 per cents
decrease in systolic blood pressure (SBP) (blood pressure [1]; i.v., 1.0 mg/kg, 30 min): -31 per cents
decrease in diastolic blood pressure (DBP) (blood pressure [1]; i.v., 1.0 mg/kg, 60 min): -27 per cents
decrease in systolic blood pressure (SBP) (blood pressure [1]; i.v., 1.0 mg/kg, 60 min): -24 per cents
decrease in diastolic blood pressure (DBP) (blood pressure [1]; i.v., 1.0 mg/kg, 180 min): -14 per cents
decrease in systolic blood pressure (SBP) (blood pressure [1]; i.v., 1.0 mg/kg, 180 min): -8 per cents
decrease in diastolic blood pressure (DBP) (blood pressure [1]; p.o., 10.0 mg/kg, 5-6 hours): -10 per cents
decrease in systolic blood pressure (SBP) (blood pressure [1]; p.o., 10.0 mg/kg, 5-6 hours): -11 per cents
decrease in diastolic blood pressure (DBP) (blood pressure [1]; p.o., 10.0 mg/kg, 0.5 hours): -16 per cents
decrease in systolic blood pressure (SBP) (blood pressure [1]; p.o., 10.0 mg/kg, 0.5 hours): -20 per cents
decrease in diastolic blood pressure (DBP) (blood pressure [1]; p.o., 10.0 mg/kg, 1 hours): -15 per cents
decrease in systolic blood pressure (SBP) (blood pressure [1]; p.o., 10.0 mg/kg, 1 hours): -15 per cents
decrease in diastolic blood pressure (DBP) (blood pressure [1]; p.o., 10.0 mg/kg, 3 hours): -16 per cents
decrease in systolic blood pressure (SBP) (blood pressure [1]; p.o., 10.0 mg/kg, 3 hours): -17 per cents
decrease in diastolic blood pressure (DBP) (blood pressure [1]; p.o., 10.0 mg/kg, 24 hours): +5 per cents
decrease in systolic blood pressure (SBP) (blood pressure [1]; p.o., 10.0 mg/kg, 24 hours): +1 per cents
decrease in diastolic blood pressure (DBP) (blood pressure [2]; [3]): -52 per cents
decrease in systolic blood pressure (SBP) (blood pressure [2]; [3]): -16 per cents
decrease in diastolic blood pressure (DBP) (blood pressure [2]; [4]): -23 per cents
decrease in systolic blood pressure (SBP) (blood pressure [2]; [4]): -23 per cents
decrease in diastolic blood pressure (DBP) (blood pressure [2]; [5]): -16 per cents
decrease in systolic blood pressure (SBP) (blood pressure [2]; [5]): -14 per cents
decrease in diastolic blood pressure (DBP) (blood pressure [2]; [6]): -16 per cents
decrease in systolic blood pressure (SBP) (blood pressure [2]; [6]): -13 per cents
decrease in diastolic blood pressure (DBP) (blood pressure [2]; [7]): -2 per cents
decrease in systolic blood pressure (SBP) (blood pressure [2]; [7]): -6 per cents
decrease in diastolic blood pressure (DBP) (blood pressure [2]; [8]): -63 per cents
decrease in systolic blood pressure (SBP) (blood pressure [2]; [8]): -43 per cents
decrease in diastolic blood pressure (DBP) (blood pressure [2]; [9]): -46 per cents
decrease in systolic blood pressure (SBP) (blood pressure [2]; [9]): -43 per cents
decrease in diastolic blood pressure (DBP) (blood pressure [2]; [10]): -29 per cents
decrease in systolic blood pressure (SBP) (blood pressure [2]; [10]): -31 per cents
decrease in diastolic blood pressure (DBP) (blood pressure [2]; [11]): -25 per cents
decrease in systolic blood pressure (SBP) (blood pressure [2]; [11]): -23 per cents
decrease in diastolic blood pressure (DBP) (blood pressure [2]; [12]): -14 per cents
decrease in systolic blood pressure (SBP) (blood pressure [2]; [12]): -17 per cents
decrease in diastolic blood pressure (DBP) (blood pressure [2]; p.o., 4.2 mg/kg, 15 min): -5 per cents
decrease in systolic blood pressure (SBP) (blood pressure [2]; p.o., 4.2 mg/kg, 15 min): -5 per cents
decrease in diastolic blood pressure (DBP) (blood pressure [2]; p.o., 4.2 mg/kg, 30 min): -20 per cents
decrease in systolic blood pressure (SBP) (blood pressure [2]; p.o., 4.2 mg/kg, 30 min): -16 per cents
decrease in diastolic blood pressure (DBP) (blood pressure [2]; p.o., 4.2 mg/kg, 60 min): -20 per cents
decrease in systolic blood pressure (SBP) (blood pressure [2]; p.o., 4.2 mg/kg, 60 min): -18 per cents
decrease in diastolic blood pressure (DBP) (blood pressure [2]; p.o., 4.2 mg/kg, 120 min): -20 per cents
decrease in systolic blood pressure (SBP) (blood pressure [2]; p.o., 4.2 mg/kg, 120 min): -20 per cents
decrease in diastolic blood pressure (DBP) (blood pressure [2]; p.o., 4.2 mg/kg, 300 min): -21 per cents
decrease in systolic blood pressure (SBP) (blood pressure [2]; p.o., 4.2 mg/kg, 300 min): -23 per cents
